From ChEMBL document CHEMBL1201862, “PubChem BioAssay data set” (2004)
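96-well plates; 48 h exposure; 5 concentrations. Endpoints by linear interpolation between flanking doses. Not reached: highest tested concentration assigned. GI50: concentration for 50% inhibition of growth.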 Calls of active or inactive are those of the source. Cut-off read from the data, not from the text of the source: active = GI50 up to about 1.1 µM and inactive = higher.

How the values were obtained:
Assay in all cases: NCI tumour cell line growth inhibition, 48 h
KM-20L2 = tested on: KM-20L2
DMS-273 = tested on: DMS-273
XF498 = tested on: XF498
LXFL 529 = tested on: LXFL 529
SNB-78 = tested on: SNB-78
M19-MEL = tested on: M19-MEL
HOP-18 = tested on: HOP-18
DMS-114 = tested on: DMS-114
RXF 631 = tested on: RXF 631

| SMILES | GI50 (KM-20L2) | GI50 (DMS-273) | GI50 (XF498) | GI50 (LXFL 529) | GI50 (SNB-78) | GI50 (M19-MEL) | GI50 (HOP-18) | GI50 (DMS-114) | GI50 (RXF 631) |
| --- | --- | --- | --- | --- | --- | --- | --- | --- | --- |
| COc1ccc(/C(Cl)=C(\C=O)c2ccc(Cl)c(Cl)c2)cc1 | 11.7 µM (inactive) | 13.1 µM (inactive) | 10.8 µM (inactive) | 5.81 µM (inactive) | 11 µM (inactive) | 13.1 µM (inactive) | 14.7 µM (inactive) | 4.06 µM (inactive) |  |
| CC(=O)NC1CC2Oc3ccc(C)cc3C(C)(O2)C1O (centres undefined) |  | > 100 µM (inactive) | > 100 µM (inactive) |  |  | > 100 µM (inactive) | > 100 µM (inactive) | > 100 µM (inactive) |  |
| CC(=O)O/C=C(/C=C/OC(C)=O)C(C/C=C(\C)C#CC=C(C)C)OC(C)=O (centres undefined) | 53.1 µM (inactive) | 50.8 µM (inactive) | 37.2 µM (inactive) | 19.3 µM (inactive) | 29.9 µM (inactive) | 20.8 µM (inactive) | 33.3 µM (inactive) | 19 µM (inactive) | > 100 µM (inactive) |
| O=C(NCCCOC(=O)CCCCCCCCC(=O)OCCCNC(=O)NC(=O)c1c[nH]c(=O)[nH]c1=O)NC(=O)c1c[nH]c(=O)[nH]c1=O | > 100 µM (inactive) | > 100 µM (inactive) | > 100 µM (inactive) | > 100 µM (inactive) | > 100 µM (inactive) | > 100 µM (inactive) | 1.49 µM (inactive) |  | > 100 µM (inactive) |
| CC(C)OP(=O)(OC(C)C)c1nc(-c2ccccc2)n(-c2ccc([N+](=O)[O-])cc2)n1 | > 100 µM (inactive) | > 100 µM (inactive) | > 100 µM (inactive) | > 100 µM (inactive) |  | > 100 µM (inactive) |  | > 100 µM (inactive) |  |
| FC(F)(F)C1(Cl)C(Cl)(c2ccccc2)C1(Cl)c1ccccc1 (centres undefined) | 13.9 µM (inactive) | 14.9 µM (inactive) | 15.7 µM (inactive) | 16.3 µM (inactive) | 17.8 µM (inactive) | 15.6 µM (inactive) | 11.1 µM (inactive) | 15.6 µM (inactive) |  |
| Brc1nc2c3ccccc3ncn2c1Br | 28.4 µM (inactive) | 30.8 µM (inactive) | 25.8 µM (inactive) | 29.9 µM (inactive) | 36.7 µM (inactive) | 33.5 µM (inactive) | 14.4 µM (inactive) | 33.4 µM (inactive) | 39.4 µM (inactive) |
| O=S(OC12CC3CC(CC(C3)C1)C2)c1cc(Cl)cc(Cl)c1OCc1ccccc1 (centres undefined) |  |  | > 100 µM (inactive) | > 100 µM (inactive) | > 100 µM (inactive) | > 100 µM (inactive) |  | 73.8 µM (inactive) | > 100 µM (inactive) |
| COc1cc(OC)c(OC)cc1/C=C\c1ccnc2ccccc12 | 0.948 µM (active) | 0.317 µM (active) |  | 1.45 µM (inactive) | 1.2 µM (inactive) | 0.851 µM (active) |  | 0.649 µM (active) |  |
| CC1=C(C(=O)Nc2ccc(Cl)c(Cl)c2)C(c2ccc([N+](=O)[O-])cc2)C(C(=O)Nc2ccc(Cl)c(Cl)c2)=C(C)N1 | 1.66 µM (inactive) | 2.91 µM (inactive) | 1.44 µM (inactive) | 2.77 µM (inactive) | 2.82 µM (inactive) | 1.82 µM (inactive) | 3.6 µM (inactive) | 2.88 µM (inactive) | 2.04 µM (inactive) |
| CCOC(=O)C(=C=C=C(c1ccccc1)c1ccccc1)C(=O)OCC | 20.9 µM (inactive) | 20.3 µM (inactive) | 15.1 µM (inactive) | 16.9 µM (inactive) | 16.9 µM (inactive) | 18.4 µM (inactive) |  | 18.5 µM (inactive) | 24 µM (inactive) |
| O=C1CC2C(=O)N(Cc3ccccc3)C1C(S(=O)(=O)c1ccccc1)C2S(=O)(=O)c1ccccc1 (centres undefined) | 2.4 µM (inactive) | 5.46 µM (inactive) | 1.86 µM (inactive) | 1.31 µM (inactive) | 11.2 µM (inactive) | 2.06 µM (inactive) | 3.78 µM (inactive) | 1.29 µM (inactive) | 12.5 µM (inactive) |
| COc1ccc2c(c1)CCCN2CCCCCCCCCCN(CCC(C)C)CCC(C)C | 10.2 µM (inactive) | 10.1 µM (inactive) | 7.89 µM (inactive) | 10.2 µM (inactive) | 16.8 µM (inactive) | 15.3 µM (inactive) | 12.1 µM (inactive) | 4.97 µM (inactive) | 8.87 µM (inactive) |
| C/C(=N/NC(=O)CC(=O)N(C(=O)c1ccccc1Cl)c1ccc(C)cc1)c1cc2ccccc2oc1=O | > 100 µM (inactive) | > 100 µM (inactive) | > 100 µM (inactive) | > 100 µM (inactive) | > 100 µM (inactive) | > 100 µM (inactive) | > 100 µM (inactive) | 49.8 µM (inactive) | > 100 µM (inactive) |
| COC(=O)NNc1c([N+](=O)[O-])cnn(-c2ccccc2)c1=O | 3.37 µM (inactive) | 1.98 µM (inactive) |  | 1.73 µM (inactive) |  | 1.87 µM (inactive) | 2.82 µM (inactive) | 3.37 µM (inactive) | 2.08 µM (inactive) |
| COc1ccccc1CC(C)N (centres undefined) | > 100 µM (inactive) | > 100 µM (inactive) | > 100 µM (inactive) | > 100 µM (inactive) | > 100 µM (inactive) |  | > 100 µM (inactive) | > 100 µM (inactive) | > 100 µM (inactive) |
| Cc1cccc(C)c1NC(=O)CCc1nnc2s/c(=C\c3ccc(N(C)C)cc3)c(=O)n12 | > 100 µM (inactive) | > 100 µM (inactive) | > 100 µM (inactive) | > 100 µM (inactive) | > 100 µM (inactive) |  |  | 50.6 µM (inactive) | > 100 µM (inactive) |
| CC1NCCc2c1[nH]c1cc(O)ccc21 (centres undefined) | > 100 µM (inactive) |  | > 100 µM (inactive) | > 100 µM (inactive) | > 100 µM (inactive) | > 100 µM (inactive) | > 100 µM (inactive) | > 100 µM (inactive) |  |
| Cn1nc2ccc3nccc(N(CCO)CCO)c3c2n1 | > 100 µM (inactive) | > 100 µM (inactive) | > 100 µM (inactive) | > 100 µM (inactive) | > 100 µM (inactive) | > 100 µM (inactive) | > 100 µM (inactive) |  |  |
| FC(F)(F)c1ccc2c(c1)N(CCCNCCN1CCOCC1)c1ccccc1S2 | 4.69 µM (inactive) | 16.8 µM (inactive) | 3.81 µM (inactive) | 12.7 µM (inactive) | 11.6 µM (inactive) | 7.14 µM (inactive) |  |  |  |
| CCOC(=O)C1Nc2ccc([N+](=O)[O-])cc2[C@H]2OCC[C@@H]12 (some centres undefined) | > 100 µM (inactive) | > 100 µM (inactive) | > 100 µM (inactive) |  | > 100 µM (inactive) | > 100 µM (inactive) | > 100 µM (inactive) | > 100 µM (inactive) | > 100 µM (inactive) |
| CC(=O)O[C@H]1C=CC(=O)C(C)CC1C (some centres undefined) | > 100 µM (inactive) | > 100 µM (inactive) | > 100 µM (inactive) | > 100 µM (inactive) | > 100 µM (inactive) | > 100 µM (inactive) |  | > 100 µM (inactive) | > 100 µM (inactive) |
| Cc1cc(O)c2c(c1)C(=O)c1c(c(O)cc(O)c1-c1c(O)cc(O)c3c1C(=O)c1cc(C)cc(O)c1C3=O)C2=O [SKYRIN] | 16.3 µM (inactive) | 7.76 µM (inactive) | 21.1 µM (inactive) |  | 26.9 µM (inactive) | 17.1 µM (inactive) | 10.4 µM (inactive) | 16.7 µM (inactive) |  |
